Results published in ChEMBL document CHEMBL4138293, “Modified Abietane Diterpenoids from Whole Plants of Selaginella moellendorffii” (J Nat Prod, 2018).
pIC50: −log10 of the molar value. Active and inactive are the calls of the source. No cut-off for these calls is given here.

Tests used:
Format in all cases: functional, cell-based
SMMC-7721 = assay: Growth inhibition of human SMMC7721 cells after 48 hrs by MTS assay
HL-60 = assay: Growth inhibition of human HL60 cells after 48 hrs by MTS assay
SW480 = assay: Growth inhibition of human SW480 cells after 48 hrs by MTS assay
MCF7 = assay: Growth inhibition of human MCF7 cells after 48 hrs by MTS assay
A549 = assay: Growth inhibition of human A549 cells after 48 hrs by MTS assay

Row | SMILES | pIC50 (SMMC-7721; SMMC-7721, 48 h) | pIC50 (HL-60; HL-60, 48 h) | pIC50 (SW480; SW480, 48 h) | growth inhibition (GI) (SMMC-7721) | growth inhibition (GI) (MCF7) | growth inhibition (GI) (HL-60) | growth inhibition (GI) (A549) | growth inhibition (GI) (SW480) | pIC50 (MCF7; MCF7, 48 h)
1 | CC(=O)O[C@H]1C(=O)[C@@]2(C)[C@H]([C@H](OC(=O)c3ccccc3)[C@]3(O)C[C@H](OC(=O)[C@H](O)[C@@H](NC(=O)c4ccccc4)c4ccccc4)C(C)=C1C3(C)C)[C@]1(OC(C)=O)CO[C@@H]1C[C@@H]2O [PACLITAXEL] | > 8.10 | > 8.10 | > 8.10 |  |  |  |  |  | 
2 | C=C1[C@@H]2CC(=O)c3cc(C(C)C)c(O)cc3[C@@]2(C)CC(=O)[C@]12CCC1=C(C2)C2=CC(=O)c3cc(C(C)C)c(O)cc3[C@@]2(C)C[C@@H]1O |  |  |  | inactive | inactive | inactive | inactive | inactive | 
3 | CC(C)c1cc2c(cc1O)[C@@]1(C)CC[C@](C)(O)[C@@](O)(CO)[C@@H]1CC2=O |  |  |  | inactive | inactive | inactive | inactive | inactive | 
4 | C=C1[C@@H]2CC(=O)c3cc(C(C)C)c(O)cc3[C@@]2(C)CC(=O)[C@]12CCC1=C(C2)[C@@H]2CC(=O)c3cc(C(C)C)c(O)cc3[C@@]2(C)C[C@@H]1O |  |  |  | inactive |  | inactive | inactive | inactive | 5.05
